Measurements as given in ChEMBL document CHEMBL1152642, “Semisynthetic latrunculin B analogs: studies of actin docking support a proposed mechanism for latrunculin bioactivity” (Bioorg Med Chem, 2009).
The source made the active and inactive calls. The rule behind the calls is not given here.

Key:
Type in all cases: functional, organism-based
Aspergillus flavus = test: Antimicrobial activity against Aspergillus flavus NRRL 501 by twofold dilution method
Saccharomyces cerevisiae = test: Antimicrobial activity against Saccharomyces cerevisiae NRRL Y2034 by twofold dilution method
Candida albicans = test: Antimicrobial activity against Candida albicans by twofold dilution method

Compound	Activity (Aspergillus flavus)	Activity (Saccharomyces cerevisiae)	Activity (Candida albicans)
CO[C@]1([C@@H]2CSC(=O)N2)C[C@H]2C[C@@H](CC[C@H](C)/C=C\CC/C(C)=C\C(=O)O2)O1	inactive	inactive	inactive
C/C1=C/C(=O)O[C@@H]2C[C@@H](CC[C@H](C)/C=C\CC1)O[C@@](O)([C@@H]1CSC(=O)N1)C2	Active	Active	Active
CCCCCCCCN1C(=O)SC[C@H]1[C@@]1(OC)C[C@H]2C[C@@H](CC[C@H](C)/C=C\CC/C(C)=C\C(=O)O2)O1	inactive	inactive	inactive
C/C1=C/C(=O)O[C@@H]2C[C@@H](CC[C@H](C)/C=C\CC1)O[C@@](O)([C@H]1CSC(=O)N1)C2	Active	Active	Active
C/C1=C/C(=O)O[C@@H]2C[C@@H](CC[C@H](C)/C=C\C=C\CC1)O[C@@](O)([C@@H]1CSC(=O)N1)C2	Active	Active	Active
C/C1=C/C(=O)O[C@@H]2CC(CC[C@H](C)/C=C\C=C\CC1)O[C@@](O)([C@H]1CSC(=O)N1)C2	Active	Active	Active
CCCCCN1C(=O)SC[C@H]1[C@@]1(OC)C[C@H]2C[C@@H](CC[C@H](C)/C=C\CC/C(C)=C\C(=O)O2)O1	inactive	inactive	inactive
CO[C@]1([C@@H]2CSC(=O)N2C)C[C@H]2C[C@@H](CC[C@H](C)/C=C\CC/C(C)=C\C(=O)O2)O1	inactive	inactive	inactive
CCCCCCN1C(=O)SC[C@H]1[C@@]1(OC)C[C@H]2C[C@@H](CC[C@H](C)/C=C\CC/C(C)=C\C(=O)O2)O1	inactive	inactive	inactive
CCCCCCCCCN1C(=O)SC[C@H]1[C@@]1(OC)C[C@H]2C[C@@H](CC[C@H](C)/C=C\CC/C(C)=C\C(=O)O2)O1	inactive	inactive	inactive
CCCCCCCCCCN1C(=O)SC[C@H]1[C@@]1(O)C[C@H]2C[C@@H](CC[C@H](C)/C=C\CC/C(C)=C\C(=O)O2)O1	inactive	inactive	inactive
CCCCCCCCCCN1C(=O)SC[C@H]1[C@@]1(OC)C[C@H]2C[C@@H](CC[C@H](C)/C=C\CC/C(C)=C\C(=O)O2)O1	inactive	inactive	inactive
